pEC50: −log10 of the molar value.
These compounds were tested on SARS-CoV-2-NLuc in A549-hACE2 cells (assay: microbe, parasite or virus in culture). Conditions: Severe acute respiratory syndrome coronavirus 2, 48 h; read-out: MPro EC50.
Format: cell-based

SMILES | pEC50
COc1cc(-c2cc3c(s2)c(=O)n([C@@H]2CCCNC(=O)C2)c(=O)n3CC2(C#N)CC2)c(Cl)cc1F [Example 36, (R)-1-((6-(2-chloro-4-fluoro-5-methoxyphenyl)-2,4-dioxo-3-(2-oxoazepan-4-yl)-3,4-dihydrothieno[3,2-d]pyrimidin-1(2H)-yl)methyl)cyclopropane-1-carbonitrile] | > 8.39
COc1cc(-c2cc3c(s2)c(=O)n([C@@H]2CCCNC(=O)C2)c(=O)n3CCNC(C)=O)c(Cl)cc1F [Example 37, (R)—N-(2-(6-(2-chloro-4-fluoro-5-methoxyphenyl)-2,4-dioxo-3-(2-oxoazepan-4-yl)-3,4-dihydrothieno[3,2-d]pyrimidin-1(2H)-yl)ethyl)acetamide] | 6.77
COc1cc(-c2cc3c(s2)c(=O)n([C@@H]2CCCNC(=O)C2)c(=O)n3CCOC(F)(F)F)c(Cl)cc1F [Example 38, (R)-6-(2-chloro-4-fluoro-5-methoxyphenyl)-3-(2-oxoazepan-4-yl)-1-(2-(trifluoromethoxy)ethyl)thieno[3,2-d]pyrimidine-2,4(1H,3H)-dione] | 6.68
COc1cc(-c2cc3c(s2)c(=O)n([C@@H]2CCCNC(=O)C2)c(=O)n3CCN2CCCC2=O)c(Cl)cc1F [Example 39, (R)-6-(2-chloro-4-fluoro-5-methoxyphenyl)-3-(2-oxoazepan-4-yl)-1-(2-(2-oxopyrrolidin-1-yl)ethyl)thieno[3,2-d]pyrimidine-2,4(1H,3H)-dione] | 6.83
COc1cc(-c2cc3c(s2)c(=O)n([C@@H]2CCCNC(=O)C2)c(=O)n3CCC(=O)N(C)C)c(Cl)cc1F [Example 40, (R)-3-(6-(2-chloro-4-fluoro-5-methoxyphenyl)-2,4-dioxo-3-(2-oxoazepan-4-yl)-3,4-dihydrothieno[3,2-d]pyrimidin-1(2H)-yl)-N,N-dimethylpropanamide] | 6.86
COc1cc(-c2cc3c(s2)c(=O)n([C@@H]2CCCNC(=O)C2)c(=O)n3Cc2ncn(C)n2)c(Cl)cc1F [Example 41, (R)-6-(2-chloro-4-fluoro-5-methoxyphenyl)-1-((1-methyl-11H-1,2,4-triazol-3-yl)methyl)-3-(2-oxoazepan-4-yl)thieno[3,2-d]pyrimidine-2,4(1H,3H)-dione] | 6.45
CNC(=O)CCn1c(=O)n([C@@H]2CCCNC(=O)C2)c(=O)c2sc(-c3cc(OC)c(F)cc3Cl)cc21 [Example 42, (R)-3-(6-(2-chloro-4-fluoro-5-methoxyphenyl)-2,4-dioxo-3-(2-oxoazepan-4-yl)-3,4-dihydrothieno[3,2-d]pyrimidin-1(2H)-yl)-N-methylpropanamide] | 6.62
COc1cc(-c2cc3c(s2)c(=O)n([C@@H]2CCCNC(=O)C2)c(=O)n3CC(F)F)c(Cl)cc1F [Example 43, (R)-6-(2-chloro-4-fluoro-5-methoxyphenyl)-1-(2,2-difluoroethyl)-3-(2-oxoazepan-4-yl)thieno[3,2-d]pyrimidine-2,4(1H,3H)-dione] | 7.46
COc1cnc(Cl)c(-c2cc3[nH]c(=O)n([C@@H]4CCCNC(=O)C4)c(=O)c3s2)c1 [Example 44, (R)-6-(2-chloro-5-methoxypyridin-3-yl)-3-(2-oxoazepan-4-yl)thieno[3,2-d]pyrimidine-2,4(1H,3H)-dione] | 6.36
COc1cc(-c2cc3[nH]c(=O)n([C@@H]4CCCNC(=O)C4)c(=O)c3s2)c(C)cc1F [Example 45, (R)-6-(4-fluoro-5-methoxy-2-methylphenyl)-3-(2-oxoazepan-4-yl)thieno[3,2-d]pyrimidine-2,4(1H,3H)-dione] | 6.86
COc1cc(-c2cc3[nH]c(=O)n([C@@H]4CCCNC(=O)C4)c(=O)c3s2)c(C#N)cc1F [Example 46, (R)-2-(2,4-dioxo-3-(2-oxoazepan-4-yl)-1,2,3,4-tetrahydrothieno[3,2-d]pyrimidin-6-yl)-5-fluoro-4-methoxybenzonitrile] | 6.11
COc1cc(-c2cc3[nH]c(=O)n([C@@H]4CCCNC(=O)C4)c(=O)c3s2)c(Cl)cc1Cl [Example 47, (R)-6-(2,4-dichloro-5-methoxyphenyl)-3-(2-oxoazepan-4-yl)thieno[3,2-d]pyrimidine-2,4(1H,3H)-dione] | 7.56
COc1cc(-c2cc3c(s2)c(=O)n([C@@H]2CCCNC(=O)C2)c(=O)n3CCC#N)c(Cl)cc1F [Example 48, (R)-3-(6-(2-chloro-4-fluoro-5-methoxyphenyl)-2,4-dioxo-3-(2-oxoazepan-4-yl)-3,4-dihydrothieno[3,2-d]pyrimidin-1(2H)-yl)propanenitrile] | 7.79
COc1cc(-c2cc3c(s2)c(=O)n([C@@H]2CCCNC(=O)C2)c(=O)n3CCC#N)c(C#N)cc1F [Example 49, (R)-2-(1-(2-cyanoethyl)-2,4-dioxo-3-(2-oxoazepan-4-yl)-1,2,3,4-tetrahydrothieno[3,2-d]pyrimidin-6-yl)-5-fluoro-4-methoxybenzonitrile] | < 6.00
COc1cnc(Cl)c(-c2cc3c(s2)c(=O)n([C@@H]2CCCNC(=O)C2)c(=O)n3CCC#N)c1 [Example 50, (R)-3-(6-(2-chloro-5-methoxypyridin-3-yl)-2,4-dioxo-3-(2-oxoazepan-4-yl)-3,4-dihydrothieno[3,2-d]pyrimidin-1(2H)-yl)propanenitrile] | < 6.00
N#CCCn1c(=O)n([C@@H]2CCCNC(=O)C2)c(=O)c2sc(-c3ccccc3Cl)cc21 [Example 51, (R)-3-(6-(2-chlorophenyl)-2,4-dioxo-3-(2-oxoazepan-4-yl)-3,4-dihydrothieno[3,2-d]pyrimidin-1(2H)-yl)propanenitrile] | 7.01
N#CCCn1c(=O)n([C@@H]2CCCNC(=O)C2)c(=O)c2sc(-c3ccccc3C#N)cc21 [Example 52, (R)-2-(1-(2-cyanoethyl)-2,4-dioxo-3-(2-oxoazepan-4-yl)-1,2,3,4-tetrahydrothieno[3,2-d]pyrimidin-6-yl)benzonitrile] | 6.21
COc1cc(-c2cc3[nH]c(=O)n(C4CC(=O)NCC(C)(C)C4)c(=O)c3s2)c(Cl)cc1F (stereo not shown) [Example 55, 6-(2-chloro-4-fluoro-5-methoxyphenyl)-3-(6,6-dimethyl-2-oxoazepan-4-yl)thieno[3,2-d]pyrimidine-2,4(1H,3H)-dione] | 6.99
COc1cc(-c2cc3[nH]c(=O)n([C@@H]4CCCNC(=O)C4)c(=O)c3cc2OC)c(C#N)cc1F [Example 56, (R)-5-fluoro-4-methoxy-2-(6-methoxy-2,4-dioxo-3-(2-oxoazepan-4-yl)-1,2,3,4-tetrahydroquinazolin-7-yl)benzonitrile] | 6.10
COc1cc(-c2cc3[nH]c(=O)n([C@H]4CNC(=O)C4)c(=O)c3o2)c(Cl)cc1F [Example 57, 6-(2-chloro-4-fluoro-5-methoxy-phenyl)-3-[(3R)-5-oxopyrrolidin-3-yl]-1H-furo[3,2-d]pyrimidine-2,4-dione] | < 6.00
COc1cc(-c2cc3[nH]c(=O)n(C4CCCCNC(=O)C4)c(=O)c3s2)c(Cl)cc1F (stereo not shown) [Example 58, 6-(2-chloro-4-fluoro-5-methoxyphenyl)-3-(2-oxoazocan-4-yl)thieno[3,2-d]pyrimidine-2,4(1H,3H)-dione] | 6.14
COc1cc(-c2cc3[nH]c(=O)n([C@@H]4CCCNC(=O)C4)c(=O)c3o2)c(Cl)cc1F [Example 59, (R)-6-(2-chloro-4-fluoro-5-methoxyphenyl)-3-(2-oxoazepan-4-yl)furo[3,2-d]pyrimidine-2,4(1H,3H)-dione] | 6.19
